Data taken from patent US10112941B2, “Tricyclic compounds as anticancer agents” (BRISTOL-MYERS SQUIBB COMPANY, priority 2013, dated 2018).

Each compound was assayed against BRD4 (Homo sapiens, UniProt O60885) (assay: Time Resolved Fluorescence Resonance Energy Transfer (TR-FRET) binding assay, BRD4). Conditions: one of the FRET assays described; read-out: FRET BRD4 IC50.

| Compound | IC50 |
| --- | --- |
| Cc1nnn(C)c1-c1cnc2c3c(S(C)(=O)=O)cccc3n(C(c3ccccc3F)C3CCOCC3)c2c1 (single isomer, unassigned) [Example 116, 5-{5-[(2-Fluorophenyl)(oxan-4-yl)methyl]-9-methanesulfonyl-5H-pyrido[3,2-b]indol-3-yl}-1,4-dimethyl-1H-1,2,3-triazole] | < 25 nM |
| Cc1nnn(C)c1-c1cnc2c3c(S(C)(=O)=O)cccc3n(C(c3c(F)cc(F)cc3F)C3CCOCC3)c2c1 (single isomer, unassigned) [Example 117, 5-{9-Methanesulfonyl-5-[oxan-4-yl(2,4,6-trifluorophenyl)methyl]-5H-pyrido[3,2-b]indol-3-yl}-1,4-dimethyl-1H-1,2,3-triazole] | < 5 nM |
| Cc1nnn(C)c1-c1cnc2c3c(S(C)(=O)=O)cccc3n(C(c3c(F)cc(F)cc3F)C3CCOCC3)c2c1 (single isomer, unassigned) [Example 118, 5-{9-Methanesulfonyl-5-[oxan-4-yl(2,4,6-trifluorophenyl)methyl]-5H-pyrido[3,2-b]indol-3-yl}-1,4-dimethyl-1H-1,2,3-triazole] | < 5 nM |
| COc1ccc(C(C2CCOCC2)n2c3cc(C(C)(C)O)ccc3c3ncc(-c4c(C)nnn4C)cc32)c(F)c1 (single isomer, unassigned) [Example 119, 2-[3-(Dimethyl-1H-1,2,3-triazol-5-yl)-5-[(2-fluoro-4-methoxyphenyl)(oxan-4-yl)methyl]-5H-pyrido[3,2-b]indol-7-yl]propan-2-ol] | < 5 nM |
| COc1ccc(C(C2CCOCC2)n2c3cc(C(C)(C)O)ccc3c3ncc(-c4c(C)nnn4C)cc32)c(F)c1 (single isomer, unassigned) [Example 120, 2-[3-(Dimethyl-1H-1,2,3-triazol-5-yl)-5-[(2-fluoro-4-methoxyphenyl)(oxan-4-yl)methyl]-5H-pyrido[3,2-b]indol-7-yl]propan-2-ol] | < 5 nM |
| COc1ccc(C(C2CCOCC2)n2c3cc(C(C)(C)O)ccc3c3ncc(-c4c(C)nnn4C)cc32)c(F)c1F (single isomer, unassigned) [Example 121, 2-{5-[(2,3-Difluoro-4-methoxyphenyl)(oxan-4-yl)methyl]-3-(dimethyl-1H-1,2,3-triazol-5-yl)-5H-pyrido[3,2-b]indol-7-yl}propan-2-ol] | < 25 nM |
| COc1ccc(C(C2CCOCC2)n2c3cc(C(C)(C)O)ccc3c3ncc(-c4c(C)nnn4C)cc32)c(F)c1F (single isomer, unassigned) [Example 122, 2-{5-[(2,3-Difluoro-4-methoxyphenyl)(oxan-4-yl)methyl]-3-(dimethyl-1H-1,2,3-triazol-5-yl)-5H-pyrido[3,2-b]indol-7-yl}propan-2-ol] | < 5 nM |
| COc1cc(F)c(C(C2CCOCC2)n2c3cc(C(C)(C)O)ccc3c3ncc(-c4c(C)nnn4C)cc32)cc1F (single isomer, unassigned) [Example 123, 2-{5-[(2,5-Difluoro-4-methoxyphenyl)(oxan-4-yl)methyl]-3-(dimethyl-1H-1,2,3-triazol-5-yl)-5H-pyrido[3,2-b]indol-7-yl}propan-2-ol] | < 5 nM |
| COc1cc(F)c(C(C2CCOCC2)n2c3cc(C(C)(C)O)ccc3c3ncc(-c4c(C)nnn4C)cc32)cc1F (single isomer, unassigned) [Example 124, 2-{5-[(2,5-Difluoro-4-methoxyphenyl)(oxan-4-yl)methyl]-3-(dimethyl-1H-1,2,3-triazol-5-yl)-5H-pyrido[3,2-b]indol-7-yl}propan-2-ol] | < 5 nM |
| Cc1noc(C)c1-c1cnc2c3ccc(C(C)(C)O)cc3n(C(c3ccc(F)cc3F)C3CCOCC3)c2c1 (single isomer, unassigned) [Example 125, 2-{5-[(2,4-Difluorophenyl)(oxan-4-yl)methyl]-3-(dimethyl-1,2-oxazol-4-yl)-5H-pyrido[3,2-b]indol-7-yl}propan-2-ol] | < 5 nM |
| Cc1noc(C)c1-c1cnc2c3ccc(C(C)(C)O)cc3n(C(c3ccc(F)cc3F)C3CCOCC3)c2c1 (single isomer, unassigned) [Example 126, 2-{5-[(2,4-Difluorophenyl)(oxan-4-yl)methyl]-3-(dimethyl-1,2-oxazol-4-yl)-5H-pyrido[3,2-b]indol-7-yl}propan-2-ol] | < 25 nM |
| Cc1noc(C)c1-c1cnc2c3ccc(C(C)(C)O)cc3n(C(c3c(F)cc(F)cc3F)C3CCOCC3)c2c1 (single isomer, unassigned) [Example 127, 2-[3-(Dimethyl-1,2-oxazol-4-yl)-5-[oxan-4-yl(2,4,6-trifluorophenyl)methyl]-5H-pyrido[3,2-b]indol-7-yl]propan-2-ol] | < 5 nM |
| Cc1noc(C)c1-c1cnc2c3ccc(C(C)(C)O)cc3n(C(c3c(F)cc(F)cc3F)C3CCOCC3)c2c1 (single isomer, unassigned) [Example 128, 2-[3-(Dimethyl-1,2-oxazol-4-yl)-5-[oxan-4-yl(2,4,6-trifluorophenyl)methyl]-5H-pyrido[3,2-b]indol-7-yl]propan-2-ol] | < 25 nM |
| Cc1noc(C)c1-c1cnc2c3ccc(C(C)(C)O)cc3n(C(c3cc(F)cc(F)c3)C3CCOCC3)c2c1 (single isomer, unassigned) [Example 129, 2-{5-[(3,5-Difluorophenyl)(oxan-4-yl)methyl]-3-(dimethyl-1,2-oxazol-4-yl)-5H-pyrido[3,2-b]indol-7-yl}propan-2-ol] | < 1500 nM |
| Cc1noc(C)c1-c1cnc2c3ccc(C(C)(C)O)cc3n(C(c3cc(F)cc(F)c3)C3CCOCC3)c2c1 (single isomer, unassigned) [Example 130, 2-{5-[(3,5-Difluorophenyl)(oxan-4-yl)methyl]-3-(dimethyl-1,2-oxazol-4-yl)-5H-pyrido[3,2-b]indol-7-yl}propan-2-ol] | < 5 nM |
| Cc1nnn(C)c1-c1cnc2c3ccc(C(C)(C)O)cc3n(C(c3cc(F)ccc3F)C3CCOCC3)c2c1 (single isomer, unassigned) [Example 131, 2-{5-[(2,5-Difluorophenyl)(oxan-4-yl)methyl]-3-(dimethyl-1H-1,2,3-triazol-5-yl)-5H-pyrido[3,2-b]indol-7-yl}propan-2-ol] | < 5 nM |
| Cc1nnn(C)c1-c1cnc2c3ccc(C(C)(C)O)cc3n(C(c3cc(F)ccc3F)C3CCOCC3)c2c1 (single isomer, unassigned) [Example 132, 2-{5-[(2,5-Difluorophenyl)(oxan-4-yl)methyl]-3-(dimethyl-1H-1,2,3-triazol-5-yl)-5H-pyrido[3,2-b]indol-7-yl}propan-2-ol] | < 5 nM |
| Cc1nnn(C)c1-c1cnc2c3ccc(C(C)(C)O)cc3n(C(c3c(F)cccc3F)C3CCOCC3)c2c1 (single isomer, unassigned) [Example 133, 2-{5-[(2,6-Difluorophenyl)(oxan-4-yl)methyl]-3-(dimethyl-1H-1,2,3-triazol-5-yl)-5H-pyrido[3,2-b]indol-7-yl}propan-2-ol] | < 5 nM |
| Cc1nnn(C)c1-c1cnc2c3ccc(C(C)(C)O)cc3n(C(c3c(F)cccc3F)C3CCOCC3)c2c1 (single isomer, unassigned) [Example 134, 2-{5-[(2,6-Difluorophenyl)(oxan-4-yl)methyl]-3-(dimethyl-1H-1,2,3-triazol-5-yl)-5H-pyrido[3,2-b]indol-7-yl}propan-2-ol] | < 5 nM |
| Cc1nnn(C)c1-c1cnc2c3ccc(C(C)(C)O)cc3n(C(c3ccc(F)cc3F)C3CCOCC3)c2c1 (single isomer, unassigned) [Example 135, 2-{5-[(2,4-Difluorophenyl)(oxan-4-yl)methyl]-3-(dimethyl-1H-1,2,3-triazol-5-yl)-5H-pyrido[3,2-b]indol-7-yl}propan-2-ol] | < 5 nM |
| Cc1nnn(C)c1-c1cnc2c3ccc(C(C)(C)O)cc3n(C(c3ccc(F)cc3F)C3CCOCC3)c2c1 (single isomer, unassigned) [Example 136, 2-{5-[(2,4-Difluorophenyl)(oxan-4-yl)methyl]-3-(dimethyl-1H-1,2,3-triazol-5-yl)-5H-pyrido[3,2-b]indol-7-yl}propan-2-ol] | < 5 nM |
| COc1cc(C(C)(C)O)cc2c1c1ncc(-c3c(C)nnn3C)cc1n2C(c1ccccc1F)C1CCOCC1 (single isomer, unassigned) [Example 137, 2-[3-(Dimethyl-1H-1,2,3-triazol-5-yl)-5-[(2-fluorophenyl)(oxan-4-yl)methyl]-9-methoxy-5H-pyrido[3,2-b]indol-7-yl]propan-2-ol] | < 5 nM |
| COc1cc(C(C)(C)O)cc2c1c1ncc(-c3c(C)nnn3C)cc1n2C(c1ccccc1F)C1CCOCC1 (single isomer, unassigned) [Example 138, 2-[3-(Dimethyl-1H-1,2,3-triazol-5-yl)-5-[(2-fluorophenyl)(oxan-4-yl)methyl]-9-methoxy-5H-pyrido[3,2-b]indol-7-yl]propan-2-ol] | < 5 nM |
| Cc1noc(C)c1-c1cnc2c3ccc(C(C)(C)O)cc3n(C(c3cc(F)ccc3F)C3CCOCC3)c2c1 (single isomer, unassigned) [Example 139, 2-{5-[(2,5-Difluorophenyl)(oxan-4-yl)methyl]-3-(dimethyl-1,2-oxazol-4-yl)-5H-pyrido[3,2-b]indol-7-yl}propan-2-ol] | < 5 nM |
| Cc1noc(C)c1-c1cnc2c3ccc(C(C)(C)O)cc3n(C(c3cc(F)ccc3F)C3CCOCC3)c2c1 (single isomer, unassigned) [Example 140, 2-{5-[(2,5-Difluorophenyl)(oxan-4-yl)methyl]-3-(dimethyl-1,2-oxazol-4-yl)-5H-pyrido[3,2-b]indol-7-yl}propan-2-ol] | < 5 nM |
| Cc1noc(C)c1-c1cnc2c3ccc(C(C)(C)O)cc3n(C(c3ccc(F)c(F)c3)C3CCOCC3)c2c1 (single isomer, unassigned) [Example 141, 2-{5-[(3,4-Difluorophenyl)(oxan-4-yl)methyl]-3-(dimethyl-1,2-oxazol-4-yl)-5H-pyrido[3,2-b]indol-7-yl}propan-2-ol] | < 25 nM |
| Cc1noc(C)c1-c1cnc2c3ccc(C(C)(C)O)cc3n(C(c3ccc(F)c(F)c3)C3CCOCC3)c2c1 (single isomer, unassigned) [Example 142, 2-{5-[(3,4-Difluorophenyl)(oxan-4-yl)methyl]-3-(dimethyl-1,2-oxazol-4-yl)-5H-pyrido[3,2-b]indol-7-yl}propan-2-ol] | < 5 nM |
